Reference: paper PMC8124549, “Antidepressants Differentially Regulate Intracellular Signaling from α1-Adrenergic Receptor Subtypes In Vitro” (International Journal of Molecular Sciences, 2021)
Where two headings read alike, the source gives them in different places.

What was measured:
α1B-AR = target: T1, α1B-AR (Homo sapiens, UniProt P35368); experiment: IP-One HTRF inositol phosphate accumulation, PC12 cells; format: cell-based
T1 construct: gene ADRA1B; human receptor from pcDNA3.1+ plasmid, stably expressed in rat PC12 cells
T1 sequence (P35368 1-520): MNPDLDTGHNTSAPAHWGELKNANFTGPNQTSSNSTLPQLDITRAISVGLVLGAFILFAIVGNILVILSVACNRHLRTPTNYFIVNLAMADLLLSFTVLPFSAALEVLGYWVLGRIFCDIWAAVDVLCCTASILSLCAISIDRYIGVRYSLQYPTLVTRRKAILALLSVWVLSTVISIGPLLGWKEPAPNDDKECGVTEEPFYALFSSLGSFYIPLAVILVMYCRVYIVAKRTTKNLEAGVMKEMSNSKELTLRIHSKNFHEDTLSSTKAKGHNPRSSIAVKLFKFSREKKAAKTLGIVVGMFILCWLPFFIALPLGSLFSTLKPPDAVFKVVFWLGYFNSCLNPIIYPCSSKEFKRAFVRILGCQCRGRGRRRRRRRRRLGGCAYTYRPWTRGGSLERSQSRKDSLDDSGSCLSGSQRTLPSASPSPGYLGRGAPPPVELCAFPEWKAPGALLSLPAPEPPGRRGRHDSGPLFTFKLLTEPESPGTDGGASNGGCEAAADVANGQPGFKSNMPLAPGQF

α1A-AR = target: T2, α1A-AR (Homo sapiens, UniProt P35348); experiment: as above; format: cell-based
T2 construct: gene ADRA1A; human receptor from pcDNA3.1+ plasmid, stably expressed in rat PC12 cells
T2 sequence (P35348 1-466): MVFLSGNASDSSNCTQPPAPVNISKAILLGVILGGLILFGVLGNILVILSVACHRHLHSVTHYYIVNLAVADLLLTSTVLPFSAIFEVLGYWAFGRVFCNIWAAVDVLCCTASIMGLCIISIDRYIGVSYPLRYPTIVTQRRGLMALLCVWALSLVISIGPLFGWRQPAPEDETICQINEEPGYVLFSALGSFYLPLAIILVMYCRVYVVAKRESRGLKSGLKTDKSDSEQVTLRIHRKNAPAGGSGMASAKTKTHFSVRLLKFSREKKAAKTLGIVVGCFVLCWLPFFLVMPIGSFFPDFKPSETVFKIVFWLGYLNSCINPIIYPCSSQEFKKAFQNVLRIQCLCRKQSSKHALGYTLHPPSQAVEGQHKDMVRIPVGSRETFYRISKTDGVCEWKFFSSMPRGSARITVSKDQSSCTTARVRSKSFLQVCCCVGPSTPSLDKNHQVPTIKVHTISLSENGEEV

In the case of `CNCCCN1c2ccccc2CCc2ccccc21` [desipramine], the IC50 (α1B-AR) is reported as 7.94 µM.

`COc1cccc(OC)c1OCCNCC1COc2ccccc2O1` (stereo not drawn) [WB4101] was tested, and the IC50 (α1A-AR; antagonism of noradrenaline at EC90, 37 °C, pH 7) was 1 × 10^−8.6 M.

`CNCCC(Oc1ccc(C(F)(F)F)cc1)c1ccccc1` (stereo not drawn) [fluoxetine] was tested, and the IC50 (α1B-AR) was over 100 µM.

`CN(C)CCCN1c2ccccc2CCc2ccccc21` [imipramine] gave an IC50 (α1B-AR) of 8.13 µM and an IC50 (α1A-AR; read-out: α1A (converted)) of 0.468 µM.

`CN(C)CCCC1(c2ccc(F)cc2)OCc2cc(C#N)ccc21` (stereo not drawn) [citalopram] gave an IC50 (α1B-AR) of over 100 µM.
